This is an account of results in patent US20130231262A1, “ENGINEERED PROTEIN: "2-COLOR SERCA", AN ION-MOTIVE ATPase FUSED TO CERULEAN AND YELLOW FLUORESCENT PROTEIN” (LOYOLA UNIVERSITY CHICAGO, priority 2012, published 2013).

In experiment [1] the target is T1, 2-color SERCA (construct 509) (Canis lupus familiaris, UniProt O46674).
T1 construct: other: Tg-dependent FRET change of construct 509; mCerulean (Cer) was fused to the N-terminus of canine SERCA2a; fused on or other part: mCerulean at the N-terminus
T1 sequence (O46674 whole entry, the tested form may be a part): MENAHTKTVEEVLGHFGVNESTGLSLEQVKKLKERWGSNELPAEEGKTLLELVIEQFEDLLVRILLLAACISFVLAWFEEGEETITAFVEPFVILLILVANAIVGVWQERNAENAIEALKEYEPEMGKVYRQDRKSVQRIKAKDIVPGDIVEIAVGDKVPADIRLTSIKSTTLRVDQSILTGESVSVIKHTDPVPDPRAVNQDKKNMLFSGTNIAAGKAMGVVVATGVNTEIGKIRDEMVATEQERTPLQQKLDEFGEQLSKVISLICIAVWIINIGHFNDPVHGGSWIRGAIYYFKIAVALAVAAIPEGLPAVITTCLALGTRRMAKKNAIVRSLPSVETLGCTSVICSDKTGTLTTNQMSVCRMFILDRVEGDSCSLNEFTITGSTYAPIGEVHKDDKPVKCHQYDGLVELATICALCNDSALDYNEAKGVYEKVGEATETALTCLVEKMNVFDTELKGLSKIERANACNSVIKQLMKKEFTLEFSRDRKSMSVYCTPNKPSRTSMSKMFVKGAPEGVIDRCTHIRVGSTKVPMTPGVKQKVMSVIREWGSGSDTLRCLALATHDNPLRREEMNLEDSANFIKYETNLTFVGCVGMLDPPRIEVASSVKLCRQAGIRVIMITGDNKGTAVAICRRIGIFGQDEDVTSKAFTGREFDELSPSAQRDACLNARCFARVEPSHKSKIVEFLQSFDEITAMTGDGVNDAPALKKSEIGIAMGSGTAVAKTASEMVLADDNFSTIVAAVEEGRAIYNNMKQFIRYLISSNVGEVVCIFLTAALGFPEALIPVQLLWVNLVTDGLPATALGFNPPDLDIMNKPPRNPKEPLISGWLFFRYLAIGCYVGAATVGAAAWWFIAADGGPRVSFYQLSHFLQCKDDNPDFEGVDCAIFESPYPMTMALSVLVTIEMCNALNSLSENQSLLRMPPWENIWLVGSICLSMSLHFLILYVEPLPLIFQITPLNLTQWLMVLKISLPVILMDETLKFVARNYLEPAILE
Kind of experiment: Tg titration of 2-color SERCA FRET change in AAV-293 cells. Format: cell-based, canine. On the procedure:
One consequence of the slow FRET response at low concentrations of Tg is that the apparent EC50 decreased over time. This is evident in FIG. 8B as a left shift in the binding curve with time. This change is quantified in FIG. 8C. The apparent upper limit estimate of EC50 (obtained from the final EC50 value) was approximately 100 nM, which is compatible with the subnanomolar affinity of the Tg-SERCA complex.

For experiment [2], the system named is 2-color SERCA (construct 509). The note with it: cited from earlier work.

What is called EC50 is the concentration that produces a half-maximal response.

Take `C/C=C(/C)C(=O)O[C@H]1C(C)=C2[C@H]([C@@H]1OC(=O)CCCCCCC)[C@@](C)(OC(C)=O)C[C@H](OC(=O)CCC)[C@@]1(O)[C@H]2OC(=O)[C@@]1(C)O` [Tg, thapsigargin]: in experiment [1], the EC50 is ~100 nM. Besides, the “affinity of the Tg-SERCA complex” value in experiment [2] is “subnanomolar”.
